From the supplement of paper PMC6045584
± gives the standard deviation of the averaged measurements.

Legend:
[1] = compound: CC[C@@]1(O)C(=O)OCc2c1cc1n(c2=O)Cc2cc3ccccc3nc2-1 [CAMPTOTHECIN]; experiment: surviving fraction relative to DMSO-only wells; higher = less growth inhibition; details: exposure time: 5 days
How it was run: (§1)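 In 384-well plates, 250–500 log-phase tumour cells per well were given 24 hours before five days of continuous exposure to inhibitors at 0.5, 1, 5, 10, 50, 100, 500 and 1000 nM. Surviving fraction is luminescence from CellTiter-Glo, normalised to the median of wells containing DMSO alone. Reading took place after 10 minutes at room temperature.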

[2] = compound: Cc1ccc(-c2cc(C(F)(F)F)nn2-c2ccc(S(N)(=O)=O)cc2)cc1 [CELECOXIB]; experiment: as above; details: exposure time: 5 days
How it was run: as §1

Row | Test System | surviving fraction ([1]; 0.5 nM) | surviving fraction ([1]; 1 nM) | surviving fraction ([1]; 5 nM) | surviving fraction ([1]; 10 nM) | surviving fraction ([1]; 50 nM) | surviving fraction ([1]; 100 nM) | surviving fraction ([1]; 500 nM) | surviving fraction ([1]; 1000 nM) | surviving fraction ([2]; 0.5 nM) | surviving fraction ([2]; 1 nM) | surviving fraction ([2]; 5 nM) | surviving fraction ([2]; 10 nM) | surviving fraction ([2]; 50 nM) | surviving fraction ([2]; 100 nM) | surviving fraction ([2]; 500 nM) | surviving fraction ([2]; 1000 nM)
1 | CCK81 LARGE INTESTINE | 0.789 ± 0.034 | 0.805 ± 0.085 | 0.693 ± 0.16 | 0.542 ± 0.097 | 0.506 ± 0.051 | 0.416 ± 0.046 | 0.056 ± 0.007 | 0.0267 ± 0.0049 | 0.841 ± 0.1 | 0.867 ± 0.052 | 0.744 ± 0.14 | 0.819 ± 0.059 | 0.774 ± 0.094 | 0.732 ± 0.099 | 0.735 ± 0.089 | 0.813 ± 0.077
2 | SG27 HEADNECK | 0.702 ± 0.062 | 0.888 ± 0.19 | 0.867 ± 0.089 | 0.906 ± 0.021 | 0.724 ± 0.034 | 0.928 ± 0.096 | 0.482 ± 0.055 | 0.203 ± 0.025 | 1.18 ± 0.086 | 1.14 ± 0.069 | 1.14 ± 0.09 | 1.13 ± 0.046 | 1.3 ± 0.084 | 1.17 ± 0.23 | 1.12 ± 0.15 | 1.21 ± 0.081
3 | SKBR3 BREAST | 0.83 ± 0.073 | 0.806 ± 0.029 | 0.757 ± 0.1 | 0.529 ± 0.029 | 0.222 ± 0.01 | 0.166 ± 0.013 | 0.0683 ± 0.0042 | 0.0517 ± 0.0049 | 1.15 ± 0.096 | 1.11 ± 0.11 | 1.019 ± 0.0061 | 1.02 ± 0.085 | 0.999 ± 0.091 | 1.07 ± 0.042 | 0.996 ± 0.17 | 1.08 ± 0.063
4 | HS578T BREAST | 0.811 ± 0.14 | 0.778 ± 0.18 | 0.729 ± 0.11 | 0.648 ± 0.091 | 0.464 ± 0.05 | 0.457 ± 0.054 | 0.228 ± 0.0098 | 0.212 ± 0.039 | 0.9 ± 0.013 | 0.892 ± 0.26 | 0.942 ± 0.14 | 0.942 ± 0.093 | 0.923 ± 0.12 | 1.11 ± 0.17 | 0.961 ± 0.083 | 0.969 ± 0.1
5 | MDAMB436 BREAST | 0.678 ± 0.074 | 0.677 ± 0.055 | 0.391 ± 0.047 | 0.318 ± 0.048 | 0.2 ± 0.017 | 0.177 ± 0.0068 | 0.142 ± 0.018 | 0.141 ± 0.022 | 0.986 ± 0.11 | 1.09 ± 0.23 | 1.03 ± 0.085 | 1.04 ± 0.11 | 1.03 ± 0.11 | 1.03 ± 0.14 | 0.992 ± 0.076 | 0.992 ± 0.11
6 | MDAMB134 BREAST | 0.662 ± 0.057 | 0.625 ± 0.048 | 0.66 ± 0.016 | 0.587 ± 0.031 | 0.602 ± 0.0085 | 0.594 ± 0.0057 | 0.587 ± 0.13 | 0.518 ± 0.044 | 0.969 ± 0.016 | 0.898 ± 0.054 | 0.881 ± 0.084 | 0.913 ± 0.083 | 1.18 ± 0.2 | 1.18 ± 0.12 | 0.984 ± 0.095 | 0.978 ± 0.085
7 | OS25HAL BONE | 0.877 ± 0.013 | 0.862 ± 0.037 | 0.475 ± 0.03 | 0.145 ± 0.022 | 0.055 ± 0.001 | 0.0397 ± 0.0093 | 0.0247 ± 0.0032 | 0.037 ± 0.0069 | 1.03 ± 0.017 | 1.02 ± 0.033 | 1.06 ± 0.021 | 1.07 ± 0.022 | 1.06 ± 0.044 | 1.1 ± 0.035 | 1.15 ± 0.08 | 1.08 ± 0.051
8 | HCC1954 BREAST | 0.381 ± 0.037 | 0.362 ± 0.0088 | 0.484 ± 0.033 | 0.517 ± 0.037 | 0.245 ± 0.046 | 0.172 ± 0.011 | 0.0478 ± 0.0088 | 0.0365 ± 0.0021 | 1.05 ± 0.12 | 1.07 ± 0.076 | 1.39 ± 0.077 | 1.27 ± 0.065 | 1.11 ± 0.033 | 0.959 ± 0.038 | 1.08 ± 0.024 | 0.859 ± 0.088
9 | MCF7 BREAST | 0.731 ± 0.032 | 0.824 ± 0.025 | 0.696 ± 0.079 | 0.556 ± 0.01 | 0.39 ± 0.0082 | 0.354 ± 0.011 | 0.0642 ± 0.0025 | 0.0648 ± 0.0052 | 0.933 ± 0.053 | 0.922 ± 0.05 | 0.938 ± 0.013 | 0.927 ± 0.035 | 0.937 ± 0.042 | 0.942 ± 0.093 | 1 ± 0.011 | 1.01 ± 0.033
10 | SCC90 HEADNECK | 0.823 ± 0.035 | 0.879 ± 0.043 | 0.904 ± 0.058 | 0.75 ± 0.046 | 0.343 ± 0.056 | 0.253 ± 0.032 | 0.04 ± 0.0076 | 0.0327 ± 0.0051 | 0.978 ± 0.063 | 1.09 ± 0.13 | 1.09 ± 0.11 | 1.01 ± 0.077 | 1.13 ± 0.11 | 1.01 ± 0.077 | 0.93 ± 0.048 | 1.01 ± 0.15
11 | HCC202 BREAST | 1.05 ± 0.027 | 0.866 ± 0.17 | 0.734 ± 0.082 | 0.691 ± 0.24 | 0.78 ± 0.14 | 0.767 ± 0.1 | 0.478 ± 0.0071 | 0.357 ± 0.0042 | 1.15 ± 0.041 | 1.14 ± 0.04 | 1.2 ± 0.33 | 1.04 ± 0.09 | 1.06 ± 0.27 | 1.13 ± 0.18 | 1.36 ± 0.39 | 1.12 ± 0.16
12 | MHM BONE | 0.9523 ± 0.0021 | 0.969 ± 0.031 | 0.94 ± 0.026 | 0.927 ± 0.025 | 0.462 ± 0.022 | 0.334 ± 0.017 | 0.16 ± 0.016 | 0.121 ± 0.0075 | 1.01 ± 0.038 | 1.01 ± 0.027 | 1.04 ± 0.03 | 1.08 ± 0.057 | 1.05 ± 0.041 | 1.05 ± 0.025 | 1.009 ± 0.009 | 1.02 ± 0.028
13 | SUM159 BREAST | 0.915 ± 0.014 | 0.937 ± 0.015 | 0.793 ± 0.018 | 0.26 ± 0.0036 | 0.1303 ± 0.00058 | 0.0763 ± 0.0031 | 0.03 ± 0.001 | 0.0283 ± 0.00058 | 1.07 ± 0.032 | 1.1 ± 0.031 | 1.09 ± 0.032 | 1.08 ± 0.048 | 1.08 ± 0.014 | 1.1 ± 0.024 | 1.07 ± 0.021 | 1.09 ± 0.017
14 | SUM149.B1*.S BREAST | 0.467 ± 0.023 | 0.853 ± 0.024 | 0.692 ± 0.075 | 0.301 ± 0.021 | 0.0407 ± 0.0027 | 0.0422 ± 0.0024 | 0.0262 ± 0.0016 | 0.0295 | 1.075 ± 0.01 | 1.09 ± 0.021 | 1.13 ± 0.075 | 1.12 ± 0.016 | 1.14 ± 0.055 | 1.16 ± 0.038 | 1.12 ± 0.067 | 1.2 ± 0.029
15 | MDAMB468 BREAST | 0.872 ± 0.061 | 0.832 ± 0.095 | 0.782 ± 0.094 | 0.546 ± 0.056 | 0.158 ± 0.011 | 0.0843 ± 0.0055 | 0.0373 ± 0.0067 | 0.0367 ± 0.0025 | 1.05 ± 0.043 | 1.05 ± 0.097 | 1.16 ± 0.054 | 1.17 ± 0.11 | 1.2 ± 0.12 | 1.19 ± 0.071 | 1.22 ± 0.046 | 1.2 ± 0.098
16 | MDAMB361 BREAST | 0.664 ± 0.069 | 0.737 ± 0.045 | 0.747 ± 0.096 | 0.723 ± 0.066 | 0.774 ± 0.071 | 0.702 ± 0.032 | 0.397 ± 0.038 | 0.38 ± 0.041 | 0.857 ± 0.13 | 0.895 ± 0.013 | 0.897 ± 0.12 | 0.896 ± 0.081 | 0.857 ± 0.17 | 0.89 ± 0.21 | 0.909 ± 0.091 | 0.968 ± 0.17
